The values below come from patent publication US7825104B2, “Methods and compositions for treating fungal infections” (Ramot at Tel Aviv University Ltd., priority 2001, dated 2010).

One may read the LD50 as the dose expected to kill half of the subjects tested.

The subject of data set [1] is Bacilus megaterium. In words: in vitro effect on Bacillus megaterium (control, Cyt P-450 containing bacteria). The format is cell-based. Conditions: solution of about 5-10 mg/ml.
Data set [2] has as its system Trichophyton rubrum. The data set is described as follows: in vitro fungicidal/fungistatic test on T. rubrum cultures. It counts as cell-based. Conditions: concentration range of 5-10 mg/ml tested. Here is the method: An in vitro test was designed for testing the fungicidal or fungistatic activity of PBA and its water-soluble derivatives. Cultures of T. rubrum were grown on 100 microliters SDB agar in a standard 96 well plate. Following an initial growth period of about 24 hours, each well was treated with 50-100 microliters of the reagent tested. Following an appropriate incubation period with or without washing, residual viability was estimated from comparison with appropriate controls, followed by secondary verification of viability tests by transfer of a part of the treated culture into a fresh well for optional recovery and growth. […] The photograph was taken four days after treatment.

For data set [3], the system named is Candida parapsilosis. In words: in vitro fungicidal/inhibitory effect on Candida parapsilosis. It counts as cell-based.
For data set [4] the following is noted: cited from earlier work.
For data set [5] the following is noted: ORL-RAT; cited from earlier work.

In the case of `OB(O)c1ccccc1` [PBA, Phenyl boronic acid], in data set [1], the “activity against Bacillus megaterium” value is “antibiotic activity”. Also, in data set [2], the “effect on T. rubrum” value was “fungicidal”. Besides, the “effect on C. parapsylosis” value in data set [3] (5 mg/ml) is listed as “fungistatic”; in data set [3] (10 mg/ml) it was “fungicidal”. The solubility in water result in data set [4] was “reasonably soluble in water”. Further, the LD50 in data set [5] was 740 mg/kg.
